Data: the supplement of paper PMC10307832

Columns and labels:
Experiment in all cases: relative viability (nuclei count vs DMSO), 5 days (fraction); higher = more cells survive
FH535 + Bortezomib = compound: CC1=C(C=CC(=C1)[N+](=O)[O-])NS(=O)(=O)C2=C(C=CC(=C2)Cl)Cl [FH535] + CC(C)C[C@H](NC(=O)[C@H](Cc1ccccc1)NC(=O)c1cnccn1)B(O)O [Bortezomib] (partner 0.002 µM)
How it was run: (§1)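 Values are medians from duplicate plates. Each reflects relative viability, defined as the nuclei count of treated wells over that of vehicle wells. Lung cancer cell lines in 1536-well plates were pin-tool dosed one day after seeding with one drug alone or with a fixed anchor-drug dose plus five library-drug doses (not always all listed) in √10 steps, then fixed, stained and imaged at 4× after 5 days.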

FH535 + Linsitinib = compound: CC1=C(C=CC(=C1)[N+](=O)[O-])NS(=O)(=O)C2=C(C=CC(=C2)Cl)Cl [FH535] + C[C@]1(O)C[C@@H](c2nc(-c3ccc4ccc(-c5ccccc5)nc4c3)c3c(N)nccn32)C1 [Linsitinib] (partner 1 µM)
How it was run: as §1

FH535 + Alpelisib = compound: CC1=C(C=CC(=C1)[N+](=O)[O-])NS(=O)(=O)C2=C(C=CC(=C2)Cl)Cl [FH535] + Cc1nc(NC(=O)N2CCC[C@H]2C(N)=O)sc1-c1ccnc(C(C)(C)C(F)(F)F)c1 [Alpelisib] (partner 2 µM)
How it was run: as §1

FH535 + Crizotinib = compound: CC1=C(C=CC(=C1)[N+](=O)[O-])NS(=O)(=O)C2=C(C=CC(=C2)Cl)Cl [FH535] + C[C@@H](Oc1cc(-c2cnn(C3CCNCC3)c2)cnc1N)c1c(Cl)ccc(F)c1Cl [Crizotinib] (partner 1 µM)
How it was run: as §1

FH535 + Pictilisib = compound: CC1=C(C=CC(=C1)[N+](=O)[O-])NS(=O)(=O)C2=C(C=CC(=C2)Cl)Cl [FH535] + CS(=O)(=O)N1CCN(Cc2cc3nc(-c4cccc5[nH]ncc45)nc(N4CCOCC4)c3s2)CC1 [Pictilisib] (partner 1 µM)
How it was run: as §1

Cell Line | relative viability (FH535 + Bortezomib; first compound 0.04 µM) | relative viability (FH535 + Bortezomib; first compound 0.1265 µM) | relative viability (FH535 + Bortezomib; first compound 0.4 µM) | relative viability (FH535 + Bortezomib; first compound 1.265 µM) | relative viability (FH535 + Linsitinib; first compound 0.04 µM) | relative viability (FH535 + Linsitinib; first compound 0.1265 µM) | relative viability (FH535 + Linsitinib; first compound 0.4 µM) | relative viability (FH535 + Linsitinib; first compound 1.265 µM) | relative viability (FH535 + Alpelisib; first compound 0.04 µM) | relative viability (FH535 + Alpelisib; first compound 0.1265 µM) | relative viability (FH535 + Alpelisib; first compound 0.4 µM) | relative viability (FH535 + Alpelisib; first compound 1.265 µM) | relative viability (FH535 + Crizotinib; first compound 0.04 µM) | relative viability (FH535 + Crizotinib; first compound 0.1265 µM) | relative viability (FH535 + Crizotinib; first compound 0.4 µM) | relative viability (FH535 + Crizotinib; first compound 1.265 µM) | relative viability (FH535 + Pictilisib; first compound 0.04 µM) | relative viability (FH535 + Pictilisib; first compound 0.1265 µM) | relative viability (FH535 + Pictilisib; first compound 0.4 µM) | relative viability (FH535 + Pictilisib; first compound 1.265 µM)
HCC-78 | 0.475 | 0.471 | 0.593 | 0.434 | 0.456 | 0.557 | 0.558 | 0.527 | 0.345 | 0.396 | 0.361 | 0.302 | 0.3 | 0.373 | 0.342 | 0.311 | 0.193 | 0.223 | 0.187 | 0.204
HCC-366 | 1.1 | 1.12 | 0.987 | 0.925 | 0.578 | 0.852 | 0.514 | 0.465 | 0.35 | 0.485 | 0.478 | 0.349 | 0.392 | 0.614 | 0.594 | 0.354 | 0.132 | 0.137 | 0.116 | 0.125
HCC-827 | 1.01 | 0.953 | 1.04 | 0.849 | 0.89 | 0.937 | 0.863 | 0.714 | 0.954 | 0.972 | 0.926 | 0.446 | 0.924 | 0.872 | 0.904 | 0.564 | 0.894 | 1 | 0.824 | 0.728
HOP-62 | 0.579 | 0.949 | 0.768 | 0.682 | 1.01 | 1.09 | 1.07 | 0.713 | 0.931 | 0.948 | 0.778 | 0.694 | 0.953 | 1.01 | 0.69 | 0.988 | 0.505 | 0.606 | 0.64 | 0.676
IA-LM | 0.89 | 0.799 | 0.747 | 0.47 | 0.624 | 0.525 | 0.687 | 0.45 | 0.827 | 0.691 | 0.642 | 0.688 | 0.867 | 0.771 | 0.645 | 0.633 | 0.328 | 0.396 | 0.389 | 0.303
LC-2-ad | 0.802 | 0.987 | 0.892 | 0.722 | 0.846 | 0.829 | 0.771 | 0.502 | 0.489 | 0.963 | 0.898 | 0.618 | 0.462 | 0.477 | 0.458 | 0.452 | 0.462 | 0.466 | 0.162 | 0.33
LCLC-97TM1 | 0.705 | 0.545 | 0.561 | 0.273 | – | 0.202 | 0.204 | 0.185 | – | 0.225 | 0.224 | 0.181 | – | 0.583 | 0.322 | 0.296 | – | 0.124 | 0.176 | 0.206
LCLC-103H | 0.948 | 1.01 | 0.939 | 1.01 | 1.06 | 1.09 | 1.21 | 0.868 | 0.906 | 0.935 | 1.01 | 0.927 | 1.04 | 1.11 | 1.02 | 0.844 | 0.598 | 0.608 | 0.561 | 0.535
LK-2 | – | – | – | – | 0.477 | 0.487 | 0.673 | 0.561 | 0.915 | 1.06 | 1.09 | 1.01 | 0.224 | 0.236 | 0.252 | 0.226 | 0.546 | 0.573 | 0.58 | 0.489
LOU-NH91 | 0.504 | 0.497 | 0.527 | 0.37 | 0.861 | 1.02 | 0.932 | 0.506 | 0.714 | 0.793 | 0.679 | 0.409 | 0.622 | 0.721 | 0.698 | 0.477 | 0.471 | 0.554 | 0.48 | 0.339
LU99A | 0.726 | 1.01 | 1.05 | 0.948 | 0.385 | 0.546 | 0.532 | 0.571 | 0.457 | 0.498 | 0.534 | 0.522 | 0.508 | 0.598 | 0.604 | 0.584 | 0.291 | 0.324 | 0.335 | 0.295
NCI-H358 | – | – | – | – | 0.696 | 0.822 | 0.791 | 0.552 | 0.919 | 0.929 | 0.84 | 0.643 | 0.482 | 0.576 | 0.582 | 0.542 | 0.326 | 0.338 | 0.247 | 0.271
NCI-H1395 | – | – | – | – | 0.877 | 1.41 | 1.07 | 0.862 | 0.847 | 1.09 | 1.1 | 0.84 | – | – | – | – | 0.583 | 0.645 | 0.64 | 0.541
NCI-H1650 | 0.198 | 0.195 | 0.184 | 0.2 | – | – | – | – | – | – | – | – | 1.01 | 1.09 | 1.15 | 0.839 | 0.503 | 0.56 | 0.545 | 0.594
NCI-H1793 | – | – | – | – | 0.785 | 0.917 | 0.867 | 0.778 | 0.597 | 0.721 | 0.618 | 0.541 | – | – | – | – | 0.344 | 0.401 | 0.313 | 0.301
NCI-H1944 | – | – | – | – | – | 1.31 | 1.22 | 1.05 | – | 0.858 | 0.848 | 0.837 | – | 1.18 | 0.962 | 0.907 | – | 0.37 | 0.34 | 0.344
NCI-H2170 | – | – | – | – | – | – | – | – | 0.853 | 0.965 | 0.784 | 0.769 | 1.14 | 1.3 | 1.19 | 1.04 | 0.255 | 0.418 | 0.315 | 0.285
SK-MES-1 | – | – | – | – | 1.04 | 1.15 | 1.09 | 0.948 | 0.865 | 0.941 | 0.855 | 0.881 | 0.975 | 1.01 | 0.973 | 0.855 | 0.329 | 0.384 | 0.365 | 0.411
